Results from US7767240B2, “Microbiological control in poultry processing” (priority 2001, dated 2010).

Tested on: total bacteria (S. sonnei, L. monocytogenes, E. coli, S. enteritidis, P. aeruginosa, C. jejuni)
Assay: Total bacteria reduction from control over 20-day storage (Example 4)
Type: cell-based
Settings: pH 8
Method: A study was conducted to determine the effect of Clorox® bleach, and 1,3-dibromo-5,5-dimethylhydantoin (DBDMH) on carcass bacteria residual after 1.5 hour in a chill tank solution and spoilage 20-day shelf life longevity (caused by bacteria contamination). Tests were conducted at pH 8 (adjusted by trisodium phosphate). Skin pigmentation (Minolta Color Meter L value or Lightness, a value or redness and b value or yellowness) were determined before and post-processing.
In general the study involved normal processing of 56-day-old birds, immersing carcasses first in a warm bath containing 10^4 per mL Escherichia coli, 10^4 per mL Salmonella enteritidis, 10^4 per mL Pseudomonas aeruginosa, 10^4 per mL Campylobacter jejuni, and 10^4 per mL spoilage bacteria each from […] strains (Listeria monocytogenes and Shigella sonnei). Carcass were then immersed in a chill tank “soup”, containing normal organic fluids (blood, fat, skin, and meat particles) and containing various disinfectants (termed test materials).
A DBDMH stock solution and test solutions, a bacteria stock solution, and a “chicken soup” were prepared as in Example 3. In addition, the bacterial broth treatments, the whole bird wash sampling procedure, and the methodologies used for quantitative or qualitative determinations for bacterial organisms were conducted as in Example 3.
In greater detail the trial events and experimental design used in this group of tests were as follows: • a) Test microorganisms used were: • Escherichia coli ATCC 11229 • Pseudomonas aeruginosa ATCC 15442 • Salmonella enteritidis ATCC 13076 • Shigella sonnei ATCC 9290 • Listeria monocytogenes ATCC 7644 • Campylobacter jejuni ATCC 29428 • b) Test Procedure: All test strains were grown individually at 35° C. for 24 hours in the media specified in Table 12. Cells were harvested by centrifugation at 10,000×g for 10 minutes and washed twice with Butterfield's Phosphate Buffer (BPB of pH 7.2). Cells were resuspended in BPB to obtain a cell suspension of approximately 1.0×10^8 CFU/mL for each microorganism. The target inoculum levels were approximately 10^6 CFU/mL in the final test solutions. In the cases of S. enteritidis and P. aeruginosa the species were washed by pouring into prepared sterile centrifuge tubes with cheesecloth filters. The culture was then pelleted and washed using above techniques and repeated 3 times. • c) The birds (56 days old) were processed under normal commercial conditions. • d) The bacteria were added to a large batch of the “chicken soup”, and then aliquots of the resultant mixture were distributed equally among the chill waters used for each test. Then the particular disinfectant composition under test was added to one of the chill waters. […]

Q: How did the “Percentage of Total Bacteria Reduction From Control (Mean % Reduction From Control)” value (from here on “Percentage … (Mean % Reduction From Control)”) (Day 0 post-processing, 10 ppm) turn out when `CC1(C)C(=O)N(Br)C(=O)N1Br` [DBDMH, 1,3-dibromo-5,5-dimethylhydantoin] was run?
A: The value was 77.8%.

Q: What about the “Percentage … (Mean % Reduction From Control)” value (Day 0 post-processing, 20 ppm) of the same molecule?
A: The value was 99.5%.

Q: And the “Percentage … (Mean % Reduction From Control)” value (Day 2 post-processing, 10 ppm)?
A: The value was 77.3%.

Q: And the “Percentage … (Mean % Reduction From Control)” value (Day 2 post-processing, 20 ppm)?
A: Its value is 99.4%.

Q: What about the “Percentage … (Mean % Reduction From Control)” value (Day 4 post-processing, 10 ppm) of the same molecule?
A: The value was 76.8%.

Q: What about the “Percentage … (Mean % Reduction From Control)” value (Day 4 post-processing, 20 ppm) of the same molecule?
A: Its value is 99.2%.

Q: What about the “Percentage … (Mean % Reduction From Control)” value (Day 6 post-processing, 10 ppm) of the same molecule?
A: The value was 77.1%.

Q: And the “Percentage … (Mean % Reduction From Control)” value (Day 6 post-processing, 20 ppm)?
A: The value was 98.5%.

Q: What about the “Percentage … (Mean % Reduction From Control)” value (Day 8 post-processing, 10 ppm) of the same molecule?
A: The value was 74.6%.

Q: What about the “Percentage … (Mean % Reduction From Control)” value (Day 8 post-processing, 20 ppm) of the same molecule?
A: Its value is 97.3%.

Q: What about the “Percentage … (Mean % Reduction From Control)” value (Day 10 post-processing, 10 ppm) of the same molecule?
A: Its value is 71.9%.

Q: What about the “Percentage … (Mean % Reduction From Control)” value (Day 10 post-processing, 20 ppm) of the same molecule?
A: The value was 95.1%.

Q: What about the “Percentage … (Mean % Reduction From Control)” value (Day 12 post-processing, 10 ppm) of the same molecule?
A: The value was 69.2%.

Q: What about the “Percentage … (Mean % Reduction From Control)” value (Day 12 post-processing, 20 ppm) of the same molecule?
A: Its value is 91.2%.

Q: What about the “Percentage … (Mean % Reduction From Control)” value (Day 14 post-processing, 10 ppm) of the same molecule?
A: Its value is 66.2%.

Q: What about the “Percentage … (Mean % Reduction From Control)” value (Day 14 post-processing, 20 ppm) of the same molecule?
A: Its value is 84.3%.

Q: And the “Percentage … (Mean % Reduction From Control)” value (Day 16 post-processing, 10 ppm)?
A: The value was 61.9%.

Q: What about the “Percentage … (Mean % Reduction From Control)” value (Day 16 post-processing, 20 ppm) of the same molecule?
A: Its value is 71.2%.

Q: And the “Percentage … (Mean % Reduction From Control)” value (Day 18 post-processing, 10 ppm)?
A: The value was 58.5%.

Q: And the “Percentage … (Mean % Reduction From Control)” value (Day 18 post-processing, 20 ppm)?
A: The value was 68.0%.

Q: What about the “Percentage … (Mean % Reduction From Control)” value (Day 20 post-processing, 10 ppm) of the same molecule?
A: The value was 53.7%.

Q: And the “Percentage … (Mean % Reduction From Control)” value (Day 20 post-processing, 20 ppm)?
A: Its value is 67.2%.
